The values that follow come from patent US20210283163A1, “COMPOSITIONS AND METHODS FOR THE TREATMENT OF ACUTE AND CHRONIC PRURITIS” (Duke University, priority 2018, published 2021).

One series deals with T1, mTRPA1 (Mus musculus, UniProt Q8BLA8).
T1 construct: endogenous in cells; host or cells: dissociated mouse DRG neurons in primary culture
The series can be described thus: Live cell labeling with Cy3-labeled oligos in cultured DRG neurons. The class given is binding. As to conditions: 10 μM Cy3-labeled oligo, 15 min. On the procedure: Live Cell Labeling and Immunocytochemistry in Mouse DRG Neurons. Disassociated DRG neurons were plated on Poly-D-Lysine coated coverslips and cultured in Neurobasal medium supplemented with B27 for 24 hr. Cells were incubated with 10 μM Cy3-labeled miR-711 or miR-711 (m6) in extracellular cell solution for 15 min at 37° C. with 5% CO2. Then the coverslips were washed and incubated with TRPA1 primary antibody (Alomone lab, rabbit, 1:100) at 4° C. for 1 hr. The cells on coverslips were incubated with secondary antibody conjugated to FITC (1:100; Jackson ImmunoResearch, West Grove, Pa.) and examined under a Leica SP5 inverted confocal microscope.

The target of another series is T2, TRPV3 (Mus musculus, UniProt Q8K424).
T2 construct: expressed in transfected cells; host or cells: CHO cells (ATCC CRL-9096), plasmid pcDNA3.1-mTrpv3, a gift from Korea University
T2 sequence (Q8K424 1-791): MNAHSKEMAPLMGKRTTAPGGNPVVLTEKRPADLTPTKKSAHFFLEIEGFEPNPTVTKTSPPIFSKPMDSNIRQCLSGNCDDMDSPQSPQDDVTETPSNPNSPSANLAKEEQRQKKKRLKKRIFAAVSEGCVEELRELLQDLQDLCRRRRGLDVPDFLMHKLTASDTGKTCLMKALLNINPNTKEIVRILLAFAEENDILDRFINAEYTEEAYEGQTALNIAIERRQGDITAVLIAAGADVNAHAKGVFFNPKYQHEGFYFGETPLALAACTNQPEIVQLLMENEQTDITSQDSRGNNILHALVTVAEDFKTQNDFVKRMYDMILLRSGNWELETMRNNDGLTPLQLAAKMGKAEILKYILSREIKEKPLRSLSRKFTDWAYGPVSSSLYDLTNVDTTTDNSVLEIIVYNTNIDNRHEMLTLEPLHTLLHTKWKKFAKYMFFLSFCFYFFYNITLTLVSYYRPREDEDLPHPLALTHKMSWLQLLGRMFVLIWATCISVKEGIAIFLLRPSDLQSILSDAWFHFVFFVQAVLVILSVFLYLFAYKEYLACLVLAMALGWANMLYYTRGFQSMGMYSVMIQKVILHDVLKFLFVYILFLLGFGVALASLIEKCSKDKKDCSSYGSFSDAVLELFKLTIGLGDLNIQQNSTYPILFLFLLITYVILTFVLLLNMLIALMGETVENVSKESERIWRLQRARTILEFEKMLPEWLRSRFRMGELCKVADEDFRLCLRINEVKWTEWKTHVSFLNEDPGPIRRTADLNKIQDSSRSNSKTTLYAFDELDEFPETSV
The series can be described thus: Whole-cell patch clamp in CHO cells transfected with mouse Trpv3 cDNA. The series is classed as cell-based. The note with it: miR-711 10 μM; carvacrol 300 μM. As to the method:
(§1) Constructs. The cDNAs of mouse pcDNA3.1-Trpa1, pcDNA3.1-Trpv1, pcDNA3.1-Trpv2, pcDNA3.1-Trpv3, and pcDNA3.1-Trpv4 were kindly provided Dr. Sun Work Hwang from Korea University. Mouse Trpa1 cDNA was subcloned into pCGN-HA backbone (Addgene) using In-Fusion HD Cloning Kit (Clontech Laboratories, CA). Q5 Site-Directed Mutagenesis Kit was used to generate mTrpa1 mutant (M1-M13) based on pCGN-mTrpa1.
(§2) Cell Culture and Transfection. CD4^+ Myla cell line was cultured in RPMI 1640 media (GIBCO), supplemented with 2 mM Glutamine (GIBCO), 100 U/mL IL-2 (Sigma), 100 U/mL IL-4 (Sigma), and 10% human AB serum (Sigma). HuT 102 cell line was cultured in RPMI 1640 supplemented with pyruvate, HEPES, and 10% (v/v) fetal bovine serum (HyClone). HEK293-hTRPA1 stable cell line was cultured in MEM (GIBCO) containing 2 mM Glutamine, 4 μg/mL Blasticidin, 10% FBS (v/v). B16 and CHO cells were cultured in high glucose (4.5 g/L) Dulbecco's Modified Eagle's Medium (GIBCO) containing 10% (v/v) fetal bovine serum (GIBCO). Culture media were supplemented with 50 units/mL of penicillin and 50 μg/mL streptomycin, and cultures were maintained with 5% CO2 in 37° C. incubator. Transfection (2 μg cDNA) was performed with Lipofectamine™ 2000 Reagent (Invitrogen) at 80% confluency and the transfected cells were cultured in the same media for 48 hr before electrophysiological and biochemical studies. […]
On the technique in general: In patch-clamp work, channel activity is measured electrically.

A further series addresses T3, TRPV2 (Mus musculus, UniProt Q9WTR1).
T3 construct: expressed in transfected cells; host or cells: CHO cells (ATCC CRL-9096), plasmid pcDNA3.1-mTrpv2, a gift from Korea University
T3 sequence (Q9WTR1 1-756): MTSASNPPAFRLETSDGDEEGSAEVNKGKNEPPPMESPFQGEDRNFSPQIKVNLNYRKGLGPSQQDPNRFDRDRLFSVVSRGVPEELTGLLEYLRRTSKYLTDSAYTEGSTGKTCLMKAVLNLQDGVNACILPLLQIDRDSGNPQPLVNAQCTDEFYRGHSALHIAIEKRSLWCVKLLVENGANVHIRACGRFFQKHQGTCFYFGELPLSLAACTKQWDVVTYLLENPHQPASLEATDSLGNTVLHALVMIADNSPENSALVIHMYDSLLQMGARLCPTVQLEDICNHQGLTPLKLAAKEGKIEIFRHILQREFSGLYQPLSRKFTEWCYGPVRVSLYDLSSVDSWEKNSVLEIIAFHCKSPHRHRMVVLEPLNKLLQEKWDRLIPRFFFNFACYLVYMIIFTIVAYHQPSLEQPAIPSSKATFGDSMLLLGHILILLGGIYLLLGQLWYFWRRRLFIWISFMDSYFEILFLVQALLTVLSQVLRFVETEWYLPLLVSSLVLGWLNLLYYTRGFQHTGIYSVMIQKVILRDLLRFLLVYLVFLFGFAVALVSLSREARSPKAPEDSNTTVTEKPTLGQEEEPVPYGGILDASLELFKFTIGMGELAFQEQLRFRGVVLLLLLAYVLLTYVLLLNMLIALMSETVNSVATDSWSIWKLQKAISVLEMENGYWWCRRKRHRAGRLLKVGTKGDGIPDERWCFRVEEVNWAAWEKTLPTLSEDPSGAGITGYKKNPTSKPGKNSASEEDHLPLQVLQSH
Kind of series: Whole-cell patch clamp in CHO cells transfected with mouse Trpv2 cDNA. The note with it: miR-711 10 μM; cannabidiol 100 μM. The class given is cell-based. As to the method:
as §1, §2

The test system of the next series is mice. Kind of series: Evans blue extravasation, neurogenic inflammation in a hind paw. The series is classed as in vivo, mouse. The note with it: intraplantar, 10 μL; capsaicin 1 mM, AITC 5 mM, miR-711 1 mM. On the procedure:
Evans Blue Extravasation. To examine neurogenic inflammation in a hind paw (Han et al., Neuron 2016, 92, 1279-1293), mice were anesthetized with 5% isoflurane. Evans blue (50 mg/kg body weight) was given intravenously 10 min before neurogenic irritant application. […] Evans blue was extracted from the tissues by incubation in 400 μL formamide at 37° C. for 48 hr. Evans blue was quantified by measuring the optical density of the formamide extract at 620 nm. Absorbance was normalized to per gram of tissue weight.

The target in another series is T4, TRPV1 (Mus musculus, UniProt Q704Y3).
T4 construct: expressed in transfected cells; host or cells: CHO cells (ATCC CRL-9096), plasmid pcDNA3.1-mTrpv1, a gift from Korea University
The series can be described thus: Whole-cell patch clamp in CHO cells transfected with mouse Trpv1 cDNA. The class given is cell-based. The note with it: miR-711 10 μM; capsaicin 50 nM. On the procedure:
as §1, §2

T1 sequence (Q8BLA8 whole entry): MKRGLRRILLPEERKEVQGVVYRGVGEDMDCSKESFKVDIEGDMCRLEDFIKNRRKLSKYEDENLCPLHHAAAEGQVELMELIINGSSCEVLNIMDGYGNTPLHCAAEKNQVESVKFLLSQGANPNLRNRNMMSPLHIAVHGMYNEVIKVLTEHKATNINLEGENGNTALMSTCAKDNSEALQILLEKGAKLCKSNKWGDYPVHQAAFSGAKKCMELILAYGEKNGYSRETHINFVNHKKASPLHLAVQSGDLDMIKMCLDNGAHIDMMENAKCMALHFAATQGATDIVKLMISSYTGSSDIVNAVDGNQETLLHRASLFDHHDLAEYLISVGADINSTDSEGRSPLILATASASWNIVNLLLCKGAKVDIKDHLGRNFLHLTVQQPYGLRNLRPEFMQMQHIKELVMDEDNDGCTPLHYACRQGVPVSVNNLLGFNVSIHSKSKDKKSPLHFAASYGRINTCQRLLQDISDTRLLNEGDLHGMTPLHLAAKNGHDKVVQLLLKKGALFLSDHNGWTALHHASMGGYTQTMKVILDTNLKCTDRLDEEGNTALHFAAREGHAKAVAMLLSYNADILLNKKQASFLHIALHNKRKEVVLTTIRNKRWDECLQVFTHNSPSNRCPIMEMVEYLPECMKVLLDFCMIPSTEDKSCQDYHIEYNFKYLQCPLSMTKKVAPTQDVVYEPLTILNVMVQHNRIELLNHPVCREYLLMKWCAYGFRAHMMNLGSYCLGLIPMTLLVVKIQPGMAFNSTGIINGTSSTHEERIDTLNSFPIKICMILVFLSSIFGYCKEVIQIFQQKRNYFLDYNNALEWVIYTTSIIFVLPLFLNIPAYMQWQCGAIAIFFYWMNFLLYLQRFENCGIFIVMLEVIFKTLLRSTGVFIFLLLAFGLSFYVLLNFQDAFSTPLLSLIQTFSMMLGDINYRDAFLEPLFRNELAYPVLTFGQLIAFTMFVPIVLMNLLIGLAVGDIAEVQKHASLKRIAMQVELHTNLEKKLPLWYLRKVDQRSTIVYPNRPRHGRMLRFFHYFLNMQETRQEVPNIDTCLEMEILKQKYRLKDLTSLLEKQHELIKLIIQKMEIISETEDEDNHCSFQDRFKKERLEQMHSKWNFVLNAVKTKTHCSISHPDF
T4 sequence (Q704Y3 whole entry): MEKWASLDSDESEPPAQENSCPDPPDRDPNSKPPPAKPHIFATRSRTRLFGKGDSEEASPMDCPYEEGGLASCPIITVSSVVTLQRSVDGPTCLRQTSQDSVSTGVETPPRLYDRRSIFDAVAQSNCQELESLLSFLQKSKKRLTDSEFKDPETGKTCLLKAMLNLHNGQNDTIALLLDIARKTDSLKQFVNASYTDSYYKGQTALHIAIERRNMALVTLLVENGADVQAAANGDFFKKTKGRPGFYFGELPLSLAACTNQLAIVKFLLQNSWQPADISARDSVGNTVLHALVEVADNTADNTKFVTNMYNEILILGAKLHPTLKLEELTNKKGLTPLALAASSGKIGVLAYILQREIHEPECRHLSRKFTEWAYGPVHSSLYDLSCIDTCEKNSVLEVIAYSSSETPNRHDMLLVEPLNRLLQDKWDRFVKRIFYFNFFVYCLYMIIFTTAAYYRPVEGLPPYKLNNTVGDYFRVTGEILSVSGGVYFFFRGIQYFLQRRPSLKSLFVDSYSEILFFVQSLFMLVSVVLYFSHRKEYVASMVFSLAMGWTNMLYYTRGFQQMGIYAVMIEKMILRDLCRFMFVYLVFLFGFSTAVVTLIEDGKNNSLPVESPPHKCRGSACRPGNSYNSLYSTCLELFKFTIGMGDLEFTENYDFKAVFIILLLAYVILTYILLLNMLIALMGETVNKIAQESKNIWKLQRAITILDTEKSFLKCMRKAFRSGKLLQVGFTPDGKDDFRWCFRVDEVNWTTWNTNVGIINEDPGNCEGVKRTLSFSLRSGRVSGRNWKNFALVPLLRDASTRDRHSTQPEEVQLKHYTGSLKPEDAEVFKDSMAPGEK

Take “Cy3-labeled miR-711: mmu-miR-711-cy3: gggacccggggagagauguaag-cy3 (SEQ ID NO: 20) (GGGACCCGGGGAGAGAUGUAAG; Cy3 label at 3' end, RNA chemistry otherwise not given here, further chemistry not given here)”: the “binding to TRPA1 on the cell surface of DRG neurons” value with mTRPA1 is “binds to TRPA1 on the cell surface”. As to `Cc1ccc(C(C)C)cc1O` [carvacrol], the inward currents result on TRPV3 is on record as “inward currents induced”. Consider `C=C(C)[C@@H]1CCC(C)=C[C@H]1c1c(O)cc(CCCCC)cc1O` [cannabidiol], for which, on TRPV2, the inward currents result is reported as “inward currents induced”. For `COc1cc(CNC(=O)CCCC/C=C/C(C)C)ccc1O` [capsaicin], the “neurogenic inflammation in hind paws (Evans blue test)” value with mice is reported as “elicited robust neurogenic inflammation”. In addition, on TRPV1, the inward currents entry is reported as “inward currents induced”.
